Measurements from US7799913B2, “Carbonylbenzoxazine compounds for enhancing glutamatergic synaptic responses” (Cortex Pharmaceuticals, Inc., priority 2001, dated 2010).

Structure (SMILES)	melting point
CCN1COc2cc3c(cc2C1=O)OC1CCCN1C3=O (racemic) [Example 23, (R,S)-3-ethyl-2H,6aH-pyrrolidino[2″,1″-3′,2′]1,3-oxazino[5′,6′-4,5]benzo[e]1,3-oxazaperhydroine-4,10-dione]	197 to 198 °C
CCCN1COc2cc3c(cc2C1=O)OC1CCCN1C3=O (racemic) [Example 24, (R,S)-3-propyl-2H,6aH-pyrrolidino[2″,1″-3′,2′]1,3-oxazino[5′,6′-4,5]benzo[e]1,3-oxazaperhydroine-4,10-dione]	153 to 154 °C
CC(C)N1COc2cc3c(cc2C1=O)OC1CCCN1C3=O (racemic) [Example 25, (R,S)-3-(methylethyl)-2H,6aH-pyrrolidino[2″,1″-3′,2′]1,3-oxazino[5′,6′-4,5]benzo[e]1,3-oxazaperhydroine-4,10-dione]	204 to 205 °C
O=C1c2cc3c(cc2OCN1C1CCCC1)C(=O)N1CCCC1O3 (racemic) [Example 26, (R,S)-3-cyclopentyl-2H,6aH-pyrrolidino[2″,1″-3′,2′]1,3-oxazino[5′,6′-4,5]benzo[e]1,3-oxazaperhydroine-4,10-dione]	184 to 188 °C
O=C1c2cc3c(cc2OCN1CC(F)(F)F)C(=O)N1CCCC1O3 (racemic) [Example 29, (R,S)-3-(2,2,2-trifluoroethyl)-2H,6aH-pyrrolidino[2″,1″-3′,2′]1,3-oxazino[5′,6′-4,5]benzo[e]1,3-oxazaperhydroine-4,10-dione]	179 to 180 °C
O=C1c2cc3c(cc2OCN1CCCN1CCOCC1)C(=O)N1CCCC1O3 (racemic) [Example 32, (R,S)-3-(3-morpholin-4-ylpropyl)-2H,6aH-pyrrolidino [2″,1″-3′,2′]1,3-oxazino[5′,6′-4,5]benzo[e]1,3-oxazaperhydroine-4,10-dione]	153 to 155 °C
COC(=O)CN1COc2cc3c(cc2C1=O)OC1CCCN1C3=O (racemic) [Example 33, (R,S)-methyl 2-(4,10-dioxo-2H,6aH-pyrrolidino[2″,1″-3′,2′]1,3-oxazino[5′,6′-4,5]benzo[e]1,3-oxazaperhydroin-3-yl)acetate]	161 to 162 °C
O=C(CN1COc2cc3c(cc2C1=O)OC1CCCN1C3=O)N1CCCC1 (racemic) [Example 34, (R,S)-3-(2-oxo-2-pyrrolidinylethyl)-2H,6aH-pyrrolidin[2″,1″-3′,2′]1,3-oxazino[5′,6′-4,5]benzo[e]1,3-oxazaperhydroine-4,10-dione]	257 to 259 °C
O=C1NCOc2cc3c(cc21)OC1CCCN1C3=O (racemic) [Example 58, (R,S)-2H,3H,6aH-pyrrolidino[2″,1″-3′,2′]1,3-oxazino[5′,6′-4,5]benzo[e]1,3-oxazaperhydroine-4,10-dione]	270 to 275 °C (dec.)
O=C1c2cc3c(cc2OCC1CO)C(=O)N1CCCC1O3 [Example 20, (R,S),(R,S)-3-(hydroxymethyl)-6aH-chromano[7,6-e]pyrrolidino[2,1-b]1,3-oxazine-4,10-dione]	189 to 190 °C
O=C1c2cc3c(cc2OCN1CCO)C(=O)N(CCO)CO3 [Example 59, 3,8-bis(2-hydroxyethyl)-2H,7H-1,3-oxazaperhydroino[5′,6′-4,5]benzo[e]1,3-oxazine-4,9-dione]	237 to 238 °C
